Data from patent US20250380697A1, “ISOXAZOLINE DERIVATIVE COMPOUND AND INSECTICIDAL COMPOSITION COMPRISING SAME” (KYUNG NONG CORPORATION, priority 2022, published 2025).

Legend:
Type in all cases: in vivo
Spodoptera frugiperda = assay: Pesticidal activity against Spodoptera frugiperda, leaf-dipping method; conditions: counted 24, 48, 72 hours, time not given, read-out: mortality rate, Spodoptera frugiperda
Procedure: (§1) Cabbage (Daiya) leaves were cut into pieces with a diameter of 5.8 cm, dipped in the pesticide composition where the compound of Synthesis Example 2 was diluted (the solvent=distilled water+acetone 50,000 mg/L+Triton X-100 100 mg/L) for 30 seconds, and sufficiently shade-dried. Then, the shade-dried cabbage leaves were placed in a petri dish (8.8 cm in diameter) covered with filter paper and repeatedly inoculated 3-5 times with the second to the third instar larvae of Spodoptera frugiperda, 10 larvae per inoculation. In particular, the Spodoptera frugiperda larvae used were those which were provided by Chung Buk University (Korea) and bred indoors for multiple generations. Then, the Spodoptera frugiperda larvae were stored under the conditions of 16 hours of light and 8 hours of dark, 25±1° C. and 50-60% relative humidity, and the number of live Spodoptera frugiperda larvae was counted 24, 48, and 72 hours after the inoculation. Thereafter, the larvae mortality rate was calculated in the same manner as in Test Example 1 above.

Thrips tabaci Lindeman = assay: Pesticidal activity against Thrips tabaci Lindeman, spray method; conditions: adults, counted 24 and 48 hours, time not given, read-out: mortality rate, Thrips tabaci Lindeman
Description: A water-soaked filter paper (9.0 cm in diameter) was placed in an insect breeding dish (Lab Guide®) with a diameter of 9.0 cm and a height of 4.0 cm, and then parafilm (width 4.0 cm×height 4.0 cm) was placed thereon. Before being treated with a pesticide composition, 10 adult Thrips tabaci Lindeman were inoculated per petri dish using a No. 4 brush. In this case, Thrips tabaci Lindeman adults used were those collected in a place near the Andong National University (Korea) and bred for multiple generations. Then, the pesticide composition where the compound of Synthesis Example 2 was diluted (the solvent=distilled water+acetone 50,000 mg/L+Triton X-100 100 mg/L) was loaded into a 100 mL small sprayer, and sprayed 10-12 times at a distance of 30 cm and a height of 50 cm, and one cotyledons of soybean, which is a host plant, were added one at a time. Then, the Thrips tabaci Lindeman adults were stored under the conditions of 16 hours of light and 8 hours of darkness, 25±1° C., and relative humidity of 50-60%, and the number of live Thrips tabaci Lindeman adults was counted 24, and 48 hours after the inoculation. Thereafter, the larvae mortality rate was calculated in the same manner as in Test Example 1 above.

Helicoverpa armigera = assay: Pesticidal activity against Helicoverpa armigera, leaf-dipping method; conditions: counted 24, 48, 72 hours, time not given, read-out: mortality rate, Helicoverpa armigera
Procedure: Cabbage (Daiya) leaves were cut into pieces with a diameter of 5.8 cm, dipped in the pesticide composition where the compound of Synthesis Example 2 was diluted (the solvent=distilled water+acetone 50,000 mg/L+Triton X-100 100 mg/L) for 30 seconds, and sufficiently shade-dried. Then, the shade-dried cabbage leaves were placed in a petri dish (8.8 cm in diameter) covered with a filter paper and repeatedly inoculated 3-5 times with third instar larvae of Helicoverpa armigera, 10 larvae per inoculation. In this case, Helicoverpa armigera larvae used were those purchased from the Andong National University (Korea). Then, the Helicoverpa armigera larvae were stored under the conditions of 16 hours of light and 8 hours of dark, 25±1° C., and relative humidity of 50-60%, and the number of live Helicoverpa armigera larvae was counted 24, 48, and 72 hours after the inoculation. Thereafter, the larvae mortality rate was calculated in the same manner as in Test Example 1 above.

Plutella xylostella = assay: Pesticidal activity against Plutella xylostella, leaf-dipping method; conditions: 48 h, read-out: mortality rate, Plutella xylostella
Spodoptera exigua = assay: Pesticidal activity against Spodoptera exigua, leaf-dipping method; conditions: counted 24, 48, 72 hours, time not given, read-out: mortality rate, Spodoptera exigua
Procedure: as §1, with “exigua,” for “frugiperda,”, “exigua” for “frugiperda”, “purchased from the Bio Utilization Institute (Andong, Korea).” for “which were provided by Chung Buk University (Korea) and bred indoors for multiple generations.”

Lymantria dispar = assay: Pesticidal activity against Lymantria dispar, leaf-dipping method; conditions: maple leaf-dipping, counted 24, 48, 72 hours, time not given, read-out: mortality rate, Lymantria dispar
Procedure: Maple leaves were dipped in the pesticide composition where the compound of Synthesis Example 2 was diluted (the solvent=distilled water+acetone 50,000 mg/L+Triton X-100 100 mg/L) for 30 seconds, and sufficiently shade-dried by placing them on aluminum foil. Then, in order to maintain the humidity of the shade-dried maple leaves, they were placed on a petri dish (9.0 cm in diameter) covered with a filter paper (9.0 cm in diameter) treated with distilled water, and repeatedly inoculated 4 times of five early third instar larvae of Lymantria dispar. In particular, Lymantria dispar larvae used were collected in Jukjang-myeon, Buk-gu, Pohang-si, Gyeongsangbuk-do, Korea. Then, Lymantria dispar larvae were stored under 16 hours of light: 8 hours of dark, 25±1° C., and 50-60% relative humidity, and the number of Lymantria dispar larvae was counted 24, 48, and 72 hours after inoculation. Thereafter, the larvae mortality rate was calculated in the same manner as in Test Example 1 above.

CON=CNC(=O)c1ccc(C2=NOC(c3cc(Cl)cc(Cl)c3)(C(F)(F)F)C2)cc1C (stereo not drawn) [Comparative Example 1, fluxametamide]
mortality at 0.1 ppm (Spodoptera frugiperda): 100%
mortality at 1 ppm (Spodoptera frugiperda): 100%
mortality at 10 ppm (Spodoptera frugiperda): 100%
mortality at 1 ppm (Thrips tabaci Lindeman): 63%
mortality at 3 ppm (Thrips tabaci Lindeman): 83%
mortality at 10 ppm (Thrips tabaci Lindeman): 86%
mortality at 0.1 ppm (Helicoverpa armigera): 78%
mortality at 0.1 ppm (Plutella xylostella): 100%
mortality at 1 ppm (Plutella xylostella): 100%
mortality at 10 ppm (Plutella xylostella): 100%
mortality at 1 ppm (Spodoptera exigua): 100%
mortality at 10 ppm (Spodoptera exigua): 100%
mortality at 0.01 ppm (Lymantria dispar): 5%
mortality at 0.1 ppm (Lymantria dispar): 95%

CNC(=O)c1cc(Cl)cc(C)c1NC(=O)c1cc(Br)nn1-c1ncccc1Cl [Comparative Example 2, chlorantraniliprole]
mortality at 0.1 ppm (Helicoverpa armigera): 31%
mortality at 0.1 ppm (Plutella xylostella): 21%
mortality at 1 ppm (Plutella xylostella): 100%
mortality at 10 ppm (Plutella xylostella): 100%
mortality at 1 ppm (Spodoptera exigua): 46%
mortality at 10 ppm (Spodoptera exigua): 71%
mortality at 0.01 ppm (Lymantria dispar): 0%
mortality at 0.1 ppm (Lymantria dispar): 10%

Cc1cc(C2=NOC(c3cc(Cl)cc(C(F)(F)F)c3)(C(F)(F)F)C2)ccc1C(=O)NC(=O)C1CC1 (racemic) [Synthesis Example 2]
mortality at 0.1 ppm (Spodoptera frugiperda): 100%
mortality at 1 ppm (Spodoptera frugiperda): 100%
mortality at 10 ppm (Spodoptera frugiperda): 100%
mortality at 1 ppm (Thrips tabaci Lindeman): 70%
mortality at 3 ppm (Thrips tabaci Lindeman): 90%
mortality at 10 ppm (Thrips tabaci Lindeman): 100%
mortality at 0.1 ppm (Helicoverpa armigera): 100%
mortality at 0.1 ppm (Plutella xylostella): 100%
mortality at 1 ppm (Plutella xylostella): 100%
mortality at 10 ppm (Plutella xylostella): 100%
mortality at 1 ppm (Spodoptera exigua): 100%
mortality at 10 ppm (Spodoptera exigua): 100%
mortality at 0.01 ppm (Lymantria dispar): 74%
mortality at 0.1 ppm (Lymantria dispar): 100%
